Measured values published in patent US9750784B2 (priority 2013, dated 2017).
Square brackets hold non-standard residues; d marks the D form. Peptide text beside a SMILES is read from it. * marks the point of attachment. Sta = CC(C)C[C@H](N)[C@@H](O)CC(=O)O; Isovaleryl = CC(C)CC(=O)*

Columns and labels:
[1] = Toxicity and genotoxicity
[2] = Cartilage penetration; format: in vitro ADME
[3] = In vivo joint microdialysis in guinea pig knee joint; design: species or system guinea pigs (Dunkin Hartley); conditions: 1 mg/joint in 50 μl as suspension, microdialysis eluates
Experimental: (§1) For these investigations, microdialysis probes from CMA (reference number 000082; CMA 7; microdialysis sample 1 mm 3/pkg) fitted with a cuprophane membrane and having a pore size of 6 kDa were used. The eluate flow rate was 0.5 μl/min.

[4] = target: T1, cathepsin D isolated from the human liver (Homo sapiens, UniProt P07339); assay: In-vitro fluorescence assay for identification of cathepsin D inhibitors; format: biochemical; conditions: pH 5.5
T1 construct: cathepsin D isolated from the human liver (Sigma-Aldrich); purchased Sigma-Aldrich; host or cells: human liver (tissue-derived)
Experimental: In order to identify modulators of cathepsin D activity, a continuous enzymatic test was carried out with a synthetic peptide which carries a fluorescent group (MCA=(7-methoxycoumarin-4-yl)acetyl) which is quenched by energy transfer from a Dpn (2,4 dinitrophenyl) group on the same molecule, in Greiner 384-well nb microtitre plates. Cleavage of the peptidic substrate by cathepsin D causes an increase in the fluorescence intensity. In order to determine the efficacy of substances, the time-dependent increase in the fluorescence intensity in the presence of the substance was compared with the time-dependent increase in fluorescence in the absence of substances. […] The enzyme employed was cathepsin D isolated from the human liver (Sigma-Aldrich) in a final concentration of 1.4 nM. The test was carried out in 100 mM sodium acetate buffer, 1.25% (v/v) of DMSO, 0.25% (w/v) of Chaps, pH 5.5. […] After carrying out a starting-point fluorescence measurement (excitation wavelength 340 nm/emission wavelength 450 nm) using an Envision multilabel reader (Perkin Elmer), the reaction was incubated at room temperature for 60 min. The amount of peptide fragment cleaved off during the reaction time was subsequently measured by determination of the increase in the fluorescence intensity at 450 nm (excitation wavelength 340 nm).

[5] = Pharmacokinetic data after intraarticular injection; format: in vivo, Lister hooded rats; conditions: for Average joint diameter [mm]: rat knee, about 700 μg suspension intraarticular
Experimental: For this study (KK-Rat-12-003), 14 male Lister hooded rats were used. All rats were given a single intraarticular injection into both knee joints at time “0”. An injection consisted of 30 μl in which about 700 μg of compound were homogeneously suspended (suspension=compound in 0.5% Methocel K4M with 0.25% Tween20 in PBS). The suspension was administered via a 25 G cannula. […] At each point in time indicated in Table 2, animals were sacrificed, the knee joints were prepared (removal of skin and muscle tissue) and frozen for further processing.
The deep-frozen joints were briefly thawed, comminuted as well as possible using bone scissors, and 4 times the volume of 80% ethanol was subsequently added. The mixture was subsequently homogenised using an Ultraturrax, the extract was shaken at RT for 20 min and then stored at −20° C. for at least 30 min. The mixture was then centrifuged at 13,000 rpm for 5 min, a 10 μl aliquot of the supernatant was diluted 1:5000 with internal standard solution, transferred into a PCR plate and analysed.
20 μl of internal standard solution were added to 20 μl of plasma, 100 μl of methanol were added, and the mixture was shaken for 5 min. The extracts were then stored at −20° C. for at least 30 min and subsequently centrifuged at 13,000 rpm for 5 min. 80 μl of the supernatant were transferred into a PCR plate and analysed.
All samples were analysed with the aid of a UPLC-MS/MS system.

[6] = In vitro microdialysis in bovine synovial fluid; format: in vitro ADME; conditions: 3 mg per ml, 6 kDa membrane
Description: Since the synovial fluid on the one hand represents a complex matrix for the analytical determination of peptides and on the other hand only the free, i.e. non-protein-bound medicament fraction is relevant for the action, the microdialysis method was employed. The eluate obtained from the microdialysis enables analysis of free medicament levels from the complex matrix of the synovial fluid. The reason for this is that a barrier membrane (microdialysis membrane) which only molecules up to a certain size is able to pass through is employed. This “pore size” determines the concentration of the medicament in the eluate besides the flow rate of the eluate and the free concentration of medicament present in the synovial fluid as driving force for material exchange.
as §1
Firstly, release kinetics in bovine synovial fluid were investigated and compared with triamcinolone (Triam Injekt® 20 mg)—a medicament approved for intraarticular injection. […] 3 mg of medicament per ml of synovial fluid were employed in a glass vessel, which corresponds approximately to the concentration conditions after intraarticular injection into the knee joint.

[7] = Stability of pepstatin in bovine synovial fluid; format: in vitro ADME; conditions: pooled bovine synovial fluid, 37° C., initial 1 μM
Experimental: In order to check the stability of individual compounds, a pool of 4 different bovine synovial fluids is mixed. To this end, about 1 ml per SF are used. The mixture is prepared directly in a 5 ml glass vessel in order to minimise any absorption effects. The SFs are mixed thoroughly, but carefully. No air bubbles or foam should form. To this end, a vortex unit is used at the lowest speed. The compounds to be tested are tested in an initial concentration (unless requested otherwise) of 1 μM. After addition of the substance, the batch is again mixed thoroughly and carefully. For visual monitoring, all SF batches are photographed, and the pictures are filed in the eLabBio file for the corresponding experiment. The batches are incubated in the incubator for 48 h at 37° C. and 7.5% CO2.
The sampling is carried out after the pre-agreed times (unless requested otherwise, see below). 4×200 μl of the SF are removed from the mixture at each point in time and transferred directly into 0.5 ml “low-binding” Eppendorf vessels. […]
The samples are stored in “low-binding” Eppendorf vessels at −20° C. The samples are subsequently measured quantitatively. […]
The concentrations measured (ng/ml) are plotted against time in a graph (Graph Pad Prism®). The percentage stability of the substance is determined here. […]

[8] = Pharmacokinetic data after intravenous and oral administration; format: in vivo, Wistar rats; conditions: Wistar rat
Experimental: The test substances were dissolved in DMSO/PEG200/water (2/60/38 v/v) with a final concentration of 0.8 mg/ml, and a dose of 0.2 mg/kg i.v. and 0.5 mg/kg orally was administered. […] The blood samples were collected in centrifuge tubes containing Li heparin and centrifuged at about 10,000 g at 4° C. for 3 min. The plasma obtained therefrom was immediately frozen at −20° C. and stored until analysis. The plasma concentrations were determined by means of a standard LC-MS/MS method. The pharmacokinetic parameters (Clp, Vss, T1/2, F) were determined via an NCA analysis.

[9] = test system: carrageenan-induced inflammation of the rat knee joint; assay: Anti-hyperalgesic action in animals (carrageenan injected intraarticularly into rat knee joint, Hargreaves test); format: in vivo; conditions: intraarticular 30 minutes before CAR
Experimental: In order to induce an inflammation reaction, a carrageenan solution (CAR, 1%, 50 μl) was injected intraarticularly on one side into a rat knee joint. The uninjected side was used for control purposes. Six animals per group were used. The […] was determined by means of a micrometer screw (medial-lateral on the knee joint), and the thermal hyperalgesia was determined by means of a directed infrared light source by the Hargreaves method (Hargreaves et al. 1988) on the sole of the foot. Since the site of inflammation (knee joint) is different from the site of measurement (sole of the paw), use is made here of the term secondary thermal hyperalgesia, the mechanisms of which is of importance for the discovery of effective analgesics.
Experimental description of thermal hyperalgesia (Hargreaves test): the experimental animal is placed in a plastic chamber on a quartz sheet. Before testing, the experimental animal is firstly given about 5-15 minutes time to familiarise itself with the environment. […] Light reflected by the paw is recorded as long as the experimental animal sits still. Withdrawal of the paw interrupts this reflection, after which the infrared light source is switched off and the time from switching on to switching off is recorded. […]

[10] = test system: ACLT tMx arthrosis model; assay: Efficacy in vivo in arthrosis, ACLT tMx model; design: species or system rats; conditions: rat ACLT tMx, 1 mg in 30 μl intraarticular, 6 weeks, histological assessment
Experimental: Rats were selected as experimental animals. After shaving and disinfection, the operation area is opened by means of a medial skin cut with a length of about 1 cm. The knee joint capsule is prepared and the medial patellar ligament is exposed. After opening of the joint capsule, cutting of the medial parapatellar ligaments and lateral displacement of the patella, the anterior cruciate ligament is cut using a curved knife with a blunt end (ACLT=anterior cruciate ligament transection). The anterior and posterior ligaments holding the meniscus in place are subsequently prepared and cut and the meniscus is removed tMx (resection of the medial meniscus). After repositioning of the patella, the joint is finally rinsed with sterile saline solution in order to remove any blood coagulum that may have formed. The patella is repositioned, and the medial patellar ligament is re-fixed by means of continuous suture with sealing of the capsule. The muscles are likewise sutured. The skin is subsequently closed by means of single stitches. The operation duration is about 10 minutes. The postoperative trial duration was 6 weeks. For intraarticular injection, the animals are anaesthetised with 1.5-2% by vol. of isoflurane. […] Two sections in the region of the exposure zone were selected from each animal and assessed by two experienced people using an assessment system. […]

[11] = test system: cartilage explant cultures; conditions: pH 5.5, explant cultures (mouse, cow or human); cited from earlier work
[12] = pooled synovial fluid of patients, Powell et al. Table II; cited from earlier work

T1 sequence (P07339 65-161 limits assumed): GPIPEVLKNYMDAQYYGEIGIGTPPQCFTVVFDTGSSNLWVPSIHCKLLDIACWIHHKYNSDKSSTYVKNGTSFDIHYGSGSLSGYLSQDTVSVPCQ
T1 sequence (P07339 169-412 limits assumed): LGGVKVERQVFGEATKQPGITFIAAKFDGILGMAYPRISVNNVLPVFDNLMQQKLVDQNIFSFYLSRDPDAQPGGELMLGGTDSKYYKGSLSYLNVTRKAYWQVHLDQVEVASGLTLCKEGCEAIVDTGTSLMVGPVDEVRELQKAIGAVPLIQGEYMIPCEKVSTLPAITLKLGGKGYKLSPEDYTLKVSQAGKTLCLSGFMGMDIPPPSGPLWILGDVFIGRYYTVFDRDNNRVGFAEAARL

With CC(C)CC(=O)N[C@H](C(=O)N[C@H](C(=O)N[C@@H](CC(C)C)[C@@H](O)CC(=O)N[C@@H](C)C(=O)N[C@@H](CC(C)C)[C@@H](O)CC(=O)O)C(C)C)C(C)C [Pepstatin, (3S,4S)-3-hydroxy-4-[(S)-2-((3S,4S)-3-hydroxy-6-methyl-4-{(S)-3-methyl-2-[(S)-3-methyl-2-(3-methyl-butyrylamino)butyrylamino]butyrylamino}heptanoylamino)-propionylamino]-6-methylheptanoic acid] (Isovaleryl-VV[Sta]A[Sta]-OH) the toxicity or genotoxicity [1] was “no measurable toxicity or genotoxicity”, the cartilage penetration [2] was “good” and the “time after intraarticular injection up to which significant levels are detectable in the joint” value [3] was “up to 14 days”. For the same compound, the “inhibition of cathepsin D (in words)” value [4] was “nanomolar range”, the “Average joint diameter [mm]” value ([5]; 0 days after injection) was 10.08 mm and the “Average joint diameter [mm]” value ([5]; 1 day after injection) was 10.88 mm. The “Average joint diameter [mm]” value ([5]; 2 days after injection) was 10.50 mm, the “Average joint diameter [mm]” value ([5]; 4 days after injection) was 10.12 mm and the “Average joint diameter [mm]” value ([5]; 7 days after injection) was 10.35 mm. The “Average joint diameter [mm]” value ([5]; 9 days after injection) was 10.14 mm, the “Average joint diameter [mm]” value ([5]; 11 days after injection) was 10.37 mm and the “Average joint diameter [mm]” value ([5]; 13 days after injection) was 10.24 mm. The “Average joint diameter [mm]” value ([5]; 15 days after injection) was 10.45 mm, the “Average joint diameter [mm]” value ([5]; 20 days after injection) was 10.18 mm and the “Average joint diameter [mm]” value ([5]; 27 days after injection) was 10.50 mm. The systemic exposure ([5]; rat, intraarticular administration of a suspension) was “very low”, the “time after administration up to which detectable in the plasma” value ([5]; rat, intraarticular suspension, very low concentration) was “up to 28 days” and the “changes of in-life parameters (body weight, knee swelling, relieving postures)” value ([5]; rat, single intraarticular injection of about 700 μg suspension into both knee joints) was “No peculiarities”. For the same compound, the “levels of unbound medicament in microdialysis eluate” value [6] was “very high levels”, the “period of stability in synovial fluid” value [7] was “at least two weeks” and the “plasma concentrations after oral administration” value ([8]; 0.5 mg/kg orally) was “below the detection limit”. The clearance ([8]; i.v. 0.2 mg/kg) was greater than 100 % liver blood flow, the distribution volume ([8]; i.v. 0.2 mg/kg) was “average” and the half-life ([8]; male, plasma, iv, i.v. 0.2 mg/kg) was roughly 8.4 min. The “reduction of thermal hyperalgesia” value ([9]; rat, Hargreaves test) was “able to reduce the extent of thermal hyperalgesia as a function of the dose”, the “efficacy in vivo in arthrosis” value [10] was “significant efficacy” and the “inhibition of autodigestion of the cartilage” value [11] was “inhibited virtually completely”.
In the case of C[C@]12C=CC(=O)C=C1CC[C@H]1[C@@H]3C[C@@H](O)[C@](O)(C(=O)CO)[C@@]3(C)C[C@H](O)[C@@]12F [TAC, Triamcinolone, reference compound], the “reduction of CAR-induced swelling” value ([9]; rat knee joint, TAC 10 μg/joint) is reported as “capable of reducing”.
For CC(C)c1nc(CN(C)C(=O)N[C@H](C(=O)N[C@@H](Cc2ccccc2)C[C@H](O)[C@H](Cc2ccccc2)NC(=O)OCc2cncs2)C(C)C)cs1 [ritonavir, reference compound], the “inhibition of autodigestion of the cartilage” value [11] is listed as “inhibited virtually completely”.
For pertussis toxin, the “half life in synovial fluid” value [12] is given as “barely two days”.
